Tests used:
[1] = target: full-length RORγt in Jurkat cells (Homo sapiens (Human), UniProt P51449); test: RORγt 5×RORE Assay in Jurkat Cells (Assay 2); assay type: cell-based; details: RORγt 5×RORE Nanoluc luciferase reporter
Experimental: [formula] RORγt 5×RORE Assay in Jurkat Cells (Assay 2)
Compounds described herein were tested for RORγ inverse agonist activity in a cell-based, transcriptional activity assay. […] (Promega, Cat. # N1021) using KpnI and HindIII restriction sites. […] Tested compounds were added to the cells in the same media (final concentration of DMSO was 0.1% (v/v)), and the plates were incubated at 37° C./5% CO2 for 16-18 hrs. Luciferase activity in the conditioned supernatants was determined with NanoGlo® assay reagents (Promega, Cat. # N1130).

[2] = target: recombinant RORγ Ligand Binding Domain (LBD) protein (Homo sapiens (Human), UniProt P51449); test: Radio-Ligand RORγ Binding Assay (Assay 1); details: competition with 25-hydroxy [26,27-3H]-cholesterol, SPA
Experimental: Radio-Ligand RORγ Binding Assay (Assay 1)
Compounds described herein were tested for ability to bind to RORγ in a cell-free competition assay with commercially available radio-ligand (RL), 25-hydroxy [26,27-^3H]-cholesterol (PerkinElmer, Cat. # NET674250UC), for a ligand binding site on a recombinant RORγ Ligand Binding Domain (LBD) protein expressed as a 6×His-Glutathione-S-Transferase (GST) fusion. […] The plate was shaken at 700 rpm for 20 min and incubated for 10 min at rt, after which 40 μL of poly-Lys YSi SPA beads (PerkinElmer, Cat. # RPNQ0010) were added to achieve 50 μg of the beads per well. The plate was incubated on an orbital shaker for 20 min and then for 10 min without agitation at rt. SPA signal for tritium beta radiation was registered on PerkinElmer Microbeta plate reader. […] The percent inhibition vs. concentration data were fit into a four-parameter model, and IC50 values were calculated from the fit as the concentrations corresponding to the inflection points on the dose-response curves.

Sequence of full-length RORγt in Jurkat cells (P51449 other isoform, or with tags, fused parts or gaps): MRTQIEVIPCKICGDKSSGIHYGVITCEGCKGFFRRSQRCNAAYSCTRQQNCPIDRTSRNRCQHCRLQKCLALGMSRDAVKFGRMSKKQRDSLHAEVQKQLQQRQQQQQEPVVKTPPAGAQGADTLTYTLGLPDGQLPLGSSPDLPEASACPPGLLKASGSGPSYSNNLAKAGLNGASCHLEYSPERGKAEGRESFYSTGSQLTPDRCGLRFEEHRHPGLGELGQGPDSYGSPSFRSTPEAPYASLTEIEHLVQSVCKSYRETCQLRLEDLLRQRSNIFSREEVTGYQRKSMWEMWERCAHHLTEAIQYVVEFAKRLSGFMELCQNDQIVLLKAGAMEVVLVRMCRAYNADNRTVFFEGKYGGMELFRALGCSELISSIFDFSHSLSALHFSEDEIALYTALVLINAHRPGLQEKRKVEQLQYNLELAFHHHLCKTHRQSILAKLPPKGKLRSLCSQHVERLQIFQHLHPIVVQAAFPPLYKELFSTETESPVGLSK
Sequence of recombinant RORγ Ligand Binding Domain (LBD) protein (P51449 269-508): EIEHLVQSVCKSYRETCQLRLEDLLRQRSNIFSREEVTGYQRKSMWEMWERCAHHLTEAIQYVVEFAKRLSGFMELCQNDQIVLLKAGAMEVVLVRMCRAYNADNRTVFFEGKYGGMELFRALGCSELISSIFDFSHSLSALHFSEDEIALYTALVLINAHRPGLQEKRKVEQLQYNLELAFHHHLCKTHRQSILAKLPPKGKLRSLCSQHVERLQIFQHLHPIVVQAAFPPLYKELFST

SMILES	IC50 [1]	Ki [2]
CCn1c(C[C@H]2CC[C@@H](C(F)(F)F)CC2)cc2cc(C(=O)NCc3ccc(S(=O)(=O)CC)cc3)ccc21 [IN-17.2, 1-ethyl-N-(4-(ethylsulfonyl)benzyl)-2-(((1s,4s)-4-(trifluoromethyl)cyclohexyl)methyl)-1H-indole-5-carboxamide]	> 1000 nM	< 100 nM
CCn1c(C[C@H]2CC[C@@H](C(F)(F)F)CC2)cc2cc(C(=O)NCc3ccc(S(=O)(=O)CC)cn3)ccc21 [IN-15.2, 1-ethyl-N-((5-(ethylsulfonyl)pyridin-2-yl)methyl)-2-(((1s,4s)-4-(trifluoromethyl)cyclohexyl)methyl)-1H-indole-5-carboxamide]	> 1000 nM	< 100 nM
CCn1c(C[C@H]2CC[C@@H](C(F)(F)F)CC2)cc2cc(C(=O)N[C@@H](CO)c3ccc(S(=O)(=O)CC)cc3)ccc21 [IN-16.2, 1-ethyl-N-((R)-1-(4-(ethylsulfonyl)phenyl)-2-hydroxyethyl)-2-(((1s,4S)-4-(trifluoromethyl)cyclohexyl)methyl)-1H-indole-5-carboxamide]	> 1000 nM	< 100 nM

These reach a lower IC50 [1]. Values come first.

IC50 [1]	Ki [2]	SMILES
< 100 nM	< 100 nM	CCS(=O)(=O)c1ccc([C@H](COC(N)=O)NC(=O)c2ccc3c(c2)nc(C[C@H]2CC[C@H](C(F)(F)F)CC2)n3C2CC2)cc1 [BE-66, (R)-2-(1-cyclopropyl-2-(((1r,4R)-4-(trifluoromethyl)cyclohexyl)methyl)-1H-benzo[d]imidazole-5-carboxamido)-2-(4-(ethylsulfonyl)phenyl)ethyl carbamate]
< 100 nM	< 100 nM	CCS(=O)(=O)c1ccc([C@@H](COC(N)=O)NC(=O)c2ccc3c(c2)nc(C[C@H]2CC[C@H](C(F)(F)F)CC2)n3C2CC2)cc1 [BE-67, (S)-2-(1-cyclopropyl-2-(((1r,4S)-4-(trifluoromethyl)cyclohexyl)methyl)-1H-benzo[d]imidazole-5-carboxamido)-2-(4-(ethylsulfonyl)phenyl)ethyl carbamate]
< 100 nM	< 100 nM	CCS(=O)(=O)c1ccc([C@H](CO)NC(=O)c2ccc3c(c2)nc(C(=O)c2ccc(C(F)(F)F)cc2)n3C2CC2)cc1 [BE-61, (R)-1-cyclopropyl-N-(1-(4-(ethylsulfonyl)phenyl)-2-hydroxyethyl)-2-(4-(trifluoromethyl)benzoyl)-1H-benzo[d]imidazole-5-carboxamide]
